Test results taken from EP4782437A1, “HETEROARYL COMPOUND, AND PREPARATION METHOD THEREFOR AND USE THEREOF IN MEDICINE” (Jiangsu Hengrui Pharmaceuticals Co., Ltd., priority 2023, dated 2025).
pIC50: −log10 of the molar value.

Target: hERG potassium channels (Homo sapiens, UniProt Q12809)
Test: hERG channel inhibition, automated patch-clamp in HEK293-hERG stable transfected cell line
Details: read-out: IC50 values of blocking effects on hERG potassium currents, whole-cell patch-clamp, tail currents

Sequence of hERG potassium channels (Q12809 whole entry): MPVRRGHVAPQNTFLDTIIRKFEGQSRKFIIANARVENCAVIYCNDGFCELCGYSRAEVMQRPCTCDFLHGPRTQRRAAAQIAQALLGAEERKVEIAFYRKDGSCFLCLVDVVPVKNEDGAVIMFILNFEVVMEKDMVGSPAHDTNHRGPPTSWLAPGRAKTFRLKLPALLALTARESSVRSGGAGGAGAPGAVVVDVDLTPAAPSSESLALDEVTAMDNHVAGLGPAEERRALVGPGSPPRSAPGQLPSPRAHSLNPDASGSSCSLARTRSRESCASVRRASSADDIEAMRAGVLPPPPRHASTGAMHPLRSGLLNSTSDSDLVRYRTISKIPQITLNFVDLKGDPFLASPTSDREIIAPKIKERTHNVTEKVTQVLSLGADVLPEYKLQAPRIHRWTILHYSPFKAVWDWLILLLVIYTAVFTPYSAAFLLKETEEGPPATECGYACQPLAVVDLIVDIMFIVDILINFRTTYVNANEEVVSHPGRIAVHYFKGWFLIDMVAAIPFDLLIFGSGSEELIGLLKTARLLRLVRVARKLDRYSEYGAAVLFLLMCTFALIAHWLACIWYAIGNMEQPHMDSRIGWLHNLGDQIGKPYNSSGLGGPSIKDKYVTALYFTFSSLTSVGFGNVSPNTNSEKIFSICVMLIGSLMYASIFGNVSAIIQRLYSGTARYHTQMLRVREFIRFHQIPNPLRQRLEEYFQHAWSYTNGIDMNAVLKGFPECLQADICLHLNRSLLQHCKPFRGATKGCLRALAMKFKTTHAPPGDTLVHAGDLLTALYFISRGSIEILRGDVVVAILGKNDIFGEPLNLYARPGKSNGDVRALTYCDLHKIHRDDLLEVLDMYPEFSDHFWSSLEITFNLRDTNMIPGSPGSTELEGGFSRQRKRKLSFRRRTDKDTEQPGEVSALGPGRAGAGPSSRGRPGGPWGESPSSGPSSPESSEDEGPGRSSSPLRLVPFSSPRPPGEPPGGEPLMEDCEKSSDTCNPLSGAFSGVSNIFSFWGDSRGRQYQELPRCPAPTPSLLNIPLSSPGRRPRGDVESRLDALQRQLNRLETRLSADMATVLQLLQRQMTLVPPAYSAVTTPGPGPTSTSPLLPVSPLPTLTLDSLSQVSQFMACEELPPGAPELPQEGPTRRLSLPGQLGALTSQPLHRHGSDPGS

## C=C(C)C(=O)NCCOc1c(N)ncnc1-c1cc(F)cc(NC(=O)c2sc3c(c2F)CC2(CC2)C3)c1C [Example 26-1, N-(3-(6-amino-5-(2-(N-methacrylamido)ethoxy)pyrimidin-4-yl)-5-fluoro-2-methylphenyl)-3-fluoro-4,6-dihydrospiro[cyclopenta[b]thiophene-5,1'-cyclopropane]-2-carboxamide]
  pIC50: 4.85
